# Values quoted from earlier work as cited in patent publication US20240216293A1, “USE OF PERILLYL ALCOHOL TO ENHANCE LEVO-DOPA DELIVERY” (NEONC TECHNOLOGIES, INC, priority 2021, published 2024).
# Test system: patients with recurrent malignant gliomas
# Conditions: Phase I/IIa trials, intranasal
structure (smiles),measurement,value
"C=C(C)C1CC=C(CO)CC1 (stereo not shown) [NEO100, perillyl alcohol]",toxic side effects,without toxic side effects
